For orientation: IC50 means the point on the concentration scale where inhibition reaches its midpoint.

Molecules are shown by their SMILES. Like-named read-outs stand apart in the source and are kept apart here.

Data on three compounds can be found in patent US20080312261A1, “4- (4-Bromo-2-Fluoroanilino) -6- Methoxy-7- (1-Methylpiperidin-4-Ylmethoxy) Quinazoline Monohydrate” (priority 2005, published 2008).

The subject of data set [1] is femoral epiphyseal growth plates. Conditions: 100 mg/kg/day in female rats, 14 days oral; p<0.001 (one-tailed Students' t-test); cited from earlier work.
Data set [2] relates to human umbilical vein endothelial cells (HUVEC). The conditions noted are these: as disclosed in WO 01/32651, cited from earlier work.
The next data set has as its system CaLu-6 tumour xenografts. Conditions: 50 mg/kg, orally once daily; CaLu-6 xenografts in mice; p<0.001 (Mann-Whitney Rank Sum Test); cited from earlier work.
Data set [3] can be described thus: Dynamic Vapour Sorption (DVS) analysis. The conditions noted are these: for kinetic stability: on the DVS timescale. The class given is physicochemical. The method, then:
Analytical Instrument: Surface Measurements Systems Dynamic Vapour Sorption Analyser, calibrated with a saturated salt solution, such as sodium chloride.
About 5 mg of material contained in a quartz holder at a specified temperature was subjected to humidified nitrogen at a flow rate of 200 ml/minute of nitrogen at the following relative humidities (RH): 0, 20, 40, 60, 80, 95, 80, 60, 40, 20, 0% RH in duplicate.
The weight of the material at a particular relative humidity was constantly monitored using an in-situ balance until it was stable according to a weight criteria of 0.002% weight change per minute averaged over 10 minutes. If the weight was still changing then it stayed at a particular relative humidity until the weight was stable (up to a maximum time of 12 hours).

For the compound `COc1cc2c(Nc3ccc(Br)cc3F)ncnc2cc1OCC1CCN(C)CC1` [ZD6474, 4-(4-bromo-2-fluoroanilino)-6-methoxy-7-(1-methylpiperidin-4-ylmethoxy)quinazoline], in data set [1], the “increase in epiphyseal growth plate hypertrophy” value was 75%. The half-maximal inhibitory concentration (IC50) in data set [2] (EGF-stimulated HUVEC proliferation, read-out: EGF IC50) is 0.17 µM; in data set [2] (VEGF-stimulated HUVEC proliferation, read-out: VEGF IC50), 0.06 µM; in data set [2] (basal HUVEC proliferation, read-out: Basal IC50), > 3 µM. In addition, the “inhibition of tumour growth” value in the data set with CaLu-6 tumour xenografts is reported as 78%.

Consider `COc1cc2c(Nc3ccc(Br)cc3F)ncnc2cc1OCC1CCN(C)CC1` [ZD6474 anhydrous, 4-(4-bromo-2-fluoroanilino)-6-methoxy-7-(1-methylpiperidin-4-ylmethoxy)quinazoline], for which, in data set [3] (25° C.), the “hygroscopicity by DVS” value was “non-hygroscopic”. Also, the water absorbed in data set [3] (at 95% relative humidity, 25° C.) stood at 0.63 % weight/weight. For the same compound, the kinetic stability result in data set [3] is “kinetically stable”.

Consider `COc1cc2c(Nc3ccc(Br)cc3F)ncnc2cc1OCC1CCN(C)CC1` [ZD6474 monohydrate, 4-(4-bromo-2-fluoroanilino)-6-methoxy-7-(1-methylpiperidin-4-ylmethoxy)quinazoline], for which the “rate of weight loss on storage” value is given as “extremely slow” in data set [3] (0% relative humidity at 25° C., once surface moisture has been removed) and “surprisingly slow” in data set [3] (0% relative humidity at 40° C.). For the same compound, the “hygroscopicity by DVS” value in data set [3] (25° C.) is “non-hygroscopic”. In data set [3] (25° C. and 0% relative humidity), the “conversion to the anhydrous form of ZD6474 during drying” value was “less than 5%”. Also, the kinetic stability entry in data set [3] is listed as “kinetically stable”.
